Experimental data as given in publication PMC11240878, “Synthesis, enzyme inhibition assay, and molecular modeling study of novel pyrazolines linked to 4-methylsulfonylphenyl scaffold: antitumor activity and cell cycle analysis” (RSC Advances, 2024).

What was measured:
NCI-H522 = test: NCI single-dose GI%, NSC lung; assay type: cell-based, human; details: 10.0 μM in one dose
UO-31 = test: NCI single-dose GI%, renal; assay type: cell-based, human; details: UO-31, renal; 10.0 μM in one dose
U251 = test: NCI single-dose GI%, CNS; assay type: cell-based, human; details: 10.0 μM in one dose
TK-10 = test: NCI single-dose GI%, renal; assay type: cell-based, human; details: TK-10, renal; 10.0 μM in one dose
HT29 = test: NCI single-dose GI%, colon; assay type: cell-based, human; details: 10.0 μM in one dose
MOLT-4 = test: NCI single-dose GI%, leukemia; assay type: cell-based, human; details: MOLT-4, leukemia; 10.0 μM in one dose
CAKI-1 = test: NCI single-dose GI%, renal; assay type: cell-based, human; details: CAKI-1, renal; 10.0 μM in one dose
A549/ATCC = test: NCI single-dose GI%, NSC lung; assay type: cell-based, human; details: 10.0 μM in one dose
K-562 = test: NCI single-dose GI%, leukemia; assay type: cell-based, human; details: K-562, leukemia; 10.0 μM in one dose
HOP-62 = test: NCI single-dose GI%, NSC lung; assay type: cell-based, human; details: HOP-62, NSC lung; 10.0 μM in one dose
EKVX = test: NCI single-dose GI%, NSC lung; assay type: cell-based, human; details: 10.0 μM in one dose
NCI-H322M = test: NCI single-dose GI%, NSC lung; assay type: cell-based, human; details: 10.0 μM in one dose
UACC-257 = test: NCI single-dose GI%, melanoma; assay type: cell-based, human; details: UACC-257, melanoma; 10.0 μM in one dose
HL-60(TB) = test: NCI single-dose GI%, leukemia; assay type: cell-based, human; details: 10.0 μM in one dose
SK-OV-3 = test: NCI single-dose GI%, ovarian; assay type: cell-based, human; details: SK-OV-3, ovarian; 10.0 μM in one dose
T-47D = test: NCI single-dose GI%, breast; assay type: cell-based, human; details: 10.0 μM in one dose
BT-549 = test: NCI single-dose GI%, breast; assay type: cell-based, human; details: BT-549, breast; 10.0 μM in one dose
OVCAR-8 = test: NCI single-dose GI%, ovarian; assay type: cell-based, human; details: OVCAR-8, ovarian; 10.0 μM in one dose
59 cancer cell lines = test: NCI 59 cancer cell line panel, single dose; assay type: cell-based, human; details: for PCE (positive cytotoxic effect: ratio of cell lines with growth inhibition >10% to total cell lines) / MG% (mean growth percent): 10 μM single dose; for MG% (mean growth percent): 59 cell lines
KM12 = test: NCI single-dose GI%, colon; assay type: cell-based, human; details: 10.0 μM in one dose
PC-3 = test: NCI single-dose GI%, prostate; assay type: cell-based, human; details: PC-3, prostate; 10.0 μM in one dose
HCT-116 = test: NCI single-dose GI%, colon; assay type: cell-based, human; details: HCT-116, colon; 10.0 μM in one dose
MDA-MB-231/ATCC = test: NCI single-dose GI%, breast; assay type: cell-based, human; details: 10.0 μM in one dose
NCI-H226 = test: NCI single-dose GI%, NSC lung; assay type: cell-based, human; details: 10.0 μM in one dose
SK-MEL-2 = test: NCI single-dose GI%, melanoma; assay type: cell-based, human; details: SK-MEL-2, melanoma; 10.0 μM in one dose
MDA-MB-468 = test: NCI single-dose GI%, breast; assay type: cell-based, human; details: MDA-MB-468, breast; 10.0 μM in one dose
SK-MEL-5 = test: NCI single-dose GI%, melanoma; assay type: cell-based, human; details: SK-MEL-5, melanoma; 10.0 μM in one dose
MCF7 = test: NCI single-dose GI%, breast; assay type: cell-based, human; details: 10.0 μM in one dose
OVCAR-4 = test: NCI single-dose GI%, ovarian; assay type: cell-based, human; details: OVCAR-4, ovarian; 10.0 μM in one dose
SNB-75 = test: NCI single-dose GI%, CNS; assay type: cell-based, human; details: SNB-75, CNS; 10.0 μM in one dose
DU-145 = test: NCI single-dose GI%, prostate; assay type: cell-based, human; details: DU-145, prostate; 10.0 μM in one dose
RPMI-8226 = test: NCI single-dose GI%, leukemia; assay type: cell-based, human; details: RPMI-8226, leukemia; 10.0 μM in one dose
A498 = test: NCI single-dose GI%, renal; assay type: cell-based, human; details: 10.0 μM in one dose
SR = test: NCI single-dose GI%, leukemia; assay type: cell-based, human; details: 10.0 μM in one dose
HCT-15 = test: NCI single-dose GI%, colon; assay type: cell-based, human; details: HCT-15, colon; 10.0 μM in one dose
SF-539 = test: NCI single-dose GI%, CNS; assay type: cell-based, human; details: SF-539, CNS; 10.0 μM in one dose
SF-295 = test: NCI single-dose GI%, CNS; assay type: cell-based, human; details: SF-295, CNS; 10.0 μM in one dose
LOX IMVI = test: NCI single-dose GI%, melanoma; assay type: cell-based, human; details: 10.0 μM in one dose
NCI-H23 = test: NCI single-dose GI%, NSC lung; assay type: cell-based, human; details: 10.0 μM in one dose

Structure (SMILES) | GI% (NCI-H522) [%] | GI% (UO-31) [%] | GI% (U251) [%] | GI% (HT29) [%] | GI% (MOLT-4) [%] | GI% (CAKI-1) [%] | GI% (K-562) [%] | GI% (HOP-62) [%] | GI% (EKVX) [%] | melting point [°C] | GI% (HL-60(TB)) [%] | GI% (T-47D) [%] | PCE (positive cytotoxic effect: ratio of cell lines with growth inhibition >10% to total cell lines) (59 cancer cell lines) | MG% (mean growth percent) (59 cancer cell lines) [%] | GI% (PC-3) [%] | GI% (HCT-116) [%] | GI% (MDA-MB-231/ATCC) [%] | GI% (NCI-H226) [%] | GI% (MDA-MB-468) [%] | other results
CS(=O)(=O)c1ccc(C(=O)N2N=C(c3ccc(F)cc3)CC2c2ccccc2)cc1 (stereo not drawn) [Compound 18d, (3-(4-Fluorophenyl)-5-phenyl-4,5-dihydro-1H-pyrazol-1-yl)(4-(methylsulfonyl)phenyl)methanone] | 43 | 27 | 17 | 14 | 37 | 14 | 32 | 29 | 16 | 311 to 313 | 57 | 17 | 18/59 | 93.02 | – | – | – | – | – | GI% (TK-10): 12%; GI% (A549/ATCC): 24%; GI% (NCI-H322M): 14%; GI% (UACC-257): 37%; GI% (SK-OV-3): 13%; GI% (BT-549): 15%; GI% (OVCAR-8): 15%
COc1ccc(C2=NN(C(=O)c3ccc(S(C)(=O)=O)cc3)C(c3ccccc3)C2)c(OC)c1 (stereo not drawn) [Compound 18n, (3-(2,4-Dimethoxyphenyl)-5-phenyl-4,5-dihydro-1H-pyrazol-1-yl)(4-(methylsulfonyl)phenyl)methanone] | 20 | 24 | – | – | 38 | 15 | 26 | 20 | 28 | 216 to 218 | 55 | 14 | 20/59 | 93.24 | 15 | 18 | 12 | 14 | 36 | GI% (KM12): 12%; GI% (SK-MEL-2): 18%; GI% (SK-MEL-5): 21%; GI% (MCF7): 65%; GI% (OVCAR-4): 12%; GI% (SNB-75): 15%
Cc1ccc(NC(=O)c2ccc(CN3CCN(C)CC3)cc2)cc1Nc1nccc(-c2cccnc2)n1 [Imatinib, reference compound] | – | – | 10.6 | 47.1 | 18 | – | – | – | 15.7 | – | – | 18.6 | – | 92.62 | 10.6 | 18.6 | 11.2 | 10.6 | 29.1 | GI% (DU-145): 14.4%; GI% (RPMI-8226): 12.6%; GI% (A498): 13.7%; GI% (SR): 14.6%; GI% (HCT-15): 11.5%; GI% (SF-539): 24.5%; GI% (SF-295): 15.1%; GI% (LOX IMVI): 11.6%; GI% (NCI-H23): 17.1%; MG% (mean growth percent) (59 cancer cell lines; listed as imatinib): 92.62%; GI% range, CNS cancer (59 cancer cell lines; CNS cancer subpanel, 10 μM): 11–25%; GI% range, NSCLC (59 cancer cell lines; NSCLC subpanel, 10 μM): 11–17%; GI% range against most of the cancer cell lines tested (59 cancer cell lines; all subpanels, 10 μM): < 10–47%; GI% range, breast cancer (59 cancer cell lines; breast cancer subpanel, 10 μM): 11–29%; GI% range, colon cancer (59 cancer cell lines; colon cancer subpanel, 10 μM): 12–47%; GI% range, leukemia (59 cancer cell lines; leukemia subpanel, 10 μM): 13–18%; GI% range, melanoma (59 cancer cell lines; melanoma subpanel, 10 μM): 12–22%; GI% range, ovarian cancer (59 cancer cell lines; ovarian cancer subpanel, 10 μM): < 10%; GI% range, prostate cancer (59 cancer cell lines; prostate cancer subpanel, 10 μM): 11–14%; GI% range, renal cancer (59 cancer cell lines; renal cancer subpanel, 10 μM): < 10–14%
